Laboratory results from the NIST ThermoML archive (doi:10.1021/je301283e).
± gives the expanded uncertainty stated by the source.

Details: Vibrating tube method

O=C=O [carbon dioxide]
mass density [kg/m3], Fluid (supercritical or subcritical phases)
Details	313.15 K	333.15 K	353.15 K	373.15 K	393.15 K
340 kPa	8.2 ± 1.4	7.7 ± 1.4	7.4 ± 1.4	6.5 ± 1.4	5.7 ± 1.4
690 kPa	15.1 ± 1.4	13.4 ± 1.4	13.5 ± 1.4	10.9 ± 1.4	9.5 ± 1.4
1030 kPa	21.4 ± 1.4	19.9 ± 1.4	18.8 ± 1.4	17.1 ± 1.4	16.3 ± 1.4
1380 kPa	26.7 ± 1.4	25.1 ± 1.4	24.6 ± 1.4	23.2 ± 1.4	22.1 ± 1.4
1720 kPa	34.2 ± 1.4	31.9 ± 1.4	31.4 ± 1.4	28.6 ± 1.4	26.9 ± 1.4
2070 kPa	38.6 ± 1.4	38.4 ± 1.4	36.1 ± 1.4	32.7 ± 1.4	32 ± 1.4
2410 kPa	48.4 ± 1.4	44.1 ± 1.4	41.9 ± 1.4	39.2 ± 1.4	37 ± 1.4
2760 kPa	56.7 ± 1.4	51.2 ± 1.4	48 ± 1.4	44.8 ± 1.4	–
3100 kPa	64.1 ± 1.4	59.1 ± 1.4	54.1 ± 1.4	50.3 ± 1.4	47.4 ± 1.4
3450 kPa	72.9 ± 1.4	65.1 ± 1.4	61.4 ± 1.4	56.1 ± 1.4	52.9 ± 1.4
3800 kPa	80.9 ± 1.4	73.1 ± 1.4	67.2 ± 1.4	63.2 ± 1.4	58.2 ± 1.4
4140 kPa	87.5 ± 1.4	79.7 ± 1.4	73.8 ± 1.4	67.9 ± 1.4	63.6 ± 1.4
4480 kPa	99.4 ± 1.4	87.9 ± 1.4	80.5 ± 1.4	73.1 ± 1.4	69.2 ± 1.4
4830 kPa	109.8 ± 1.4	96.5 ± 1.4	88 ± 1.4	80 ± 1.4	74.7 ± 1.4
5170 kPa	122 ± 1.4	105.1 ± 1.4	94.9 ± 1.4	86.2 ± 1.4	80.4 ± 1.4
5510 kPa	134 ± 1.4	114.2 ± 1.4	102.4 ± 1.4	93 ± 1.4	86.2 ± 1.4
5860 kPa	145.4 ± 1.4	123.8 ± 1.4	110.2 ± 1.4	99.2 ± 1.4	92.4 ± 1.4
6200 kPa	158 ± 1.5	133.4 ± 1.4	118 ± 1.4	106 ± 1.4	98.1 ± 1.4
6550 kPa	175.1 ± 1.5	144.2 ± 1.4	126.2 ± 1.4	112.9 ± 1.4	104.7 ± 1.4
6890 kPa	194.5 ± 1.5	154.3 ± 1.5	134.4 ± 1.4	120 ± 1.4	110.5 ± 1.4
7240 kPa	218.9 ± 1.6	166.4 ± 1.5	143.4 ± 1.4	127 ± 1.4	113.6 ± 1.4
7580 kPa	239.9 ± 1.7	178.8 ± 1.5	152.1 ± 1.4	135.4 ± 1.4	123.1 ± 1.4
7930 kPa	272.8 ± 1.9	190.1 ± 1.5	161.4 ± 1.4	143.1 ± 1.4	129.9 ± 1.4
8270 kPa	315.6 ± 2.3	205.2 ± 1.6	171.1 ± 1.5	151.1 ± 1.4	136.2 ± 1.4
8620 kPa	383.1 ± 3	219.5 ± 1.8	180.8 ± 1.5	158.1 ± 1.4	142.9 ± 1.4
8960 kPa	478.5 ± 3.5	235.1 ± 2.1	191.1 ± 1.5	166.1 ± 1.4	149.4 ± 1.4
9310 kPa	554.1 ± 3.6	252.4 ± 2.3	201.8 ± 1.5	174.4 ± 1.4	156.2 ± 1.4
9650 kPa	599.1 ± 3.7	271 ± 2.5	211.9 ± 1.5	182.7 ± 1.5	163.2 ± 1.4
10000 kPa	630 ± 3.7	291.4 ± 2.6	223.5 ± 1.5	191.9 ± 1.5	170.4 ± 1.4
10340 kPa	649.1 ± 3.7	313.6 ± 2.6	235 ± 1.6	199.4 ± 1.5	176.4 ± 1.4
10690 kPa	667.8 ± 3.6	337 ± 2.7	247.4 ± 1.6	208.4 ± 1.5	183.2 ± 1.5
11030 kPa	682.9 ± 3.5	361.9 ± 2.7	259.8 ± 1.6	217.3 ± 1.5	191.1 ± 1.5
11380 kPa	696.2 ± 3.4	388 ± 2.7	272.4 ± 1.7	223.2 ± 1.5	198.2 ± 1.5
11720 kPa	708 ± 3.3	411.1 ± 2.7	283.9 ± 1.7	233.1 ± 1.5	203.9 ± 1.5
12070 kPa	718.3 ± 3.2	437.9 ± 2.7	298.3 ± 1.8	242.8 ± 1.5	210.8 ± 1.5
12410 kPa	727.4 ± 3	463.8 ± 2.7	312.1 ± 1.9	252.7 ± 1.5	218 ± 1.5
12750 kPa	737.3 ± 2.9	489.2 ± 2.7	328.4 ± 1.9	262.8 ± 1.6	226.3 ± 1.5
13100 kPa	744.1 ± 2.8	510.1 ± 2.6	342 ± 1.9	272.5 ± 1.6	234 ± 1.5
13440 kPa	751 ± 3	530.7 ± 2.6	356.7 ± 2	283.1 ± 1.6	242.1 ± 1.5
13790 kPa	757.9 ± 2.5	549.9 ± 2.5	372.8 ± 2	293.1 ± 1.6	250.9 ± 1.5
14130 kPa	765.3 ± 2.4	567.7 ± 2.5	388.6 ± 2	304.7 ± 1.6	258 ± 1.5
14480 kPa	770 ± 2.4	582 ± 2.4	403 ± 2.1	314.9 ± 1.6	266.4 ± 1.5
14820 kPa	775.9 ± 2.3	596 ± 2.4	417.8 ± 2.1	325 ± 1.7	275 ± 1.6
15160 kPa	781.5 ± 2.2	609.4 ± 2.3	433 ± 2.1	336.1 ± 1.7	283.9 ± 1.6
15510 kPa	786.4 ± 2.2	621 ± 2.3	447.5 ± 2.1	347.6 ± 1.7	291.1 ± 1.6
15860 kPa	791.7 ± 2.2	627.4 ± 2.3	461 ± 2.1	358.1 ± 1.7	300.7 ± 1.6
16200 kPa	796.1 ± 2.1	642.1 ± 2.2	475 ± 2.1	368.7 ± 1.7	308.4 ± 1.6
16550 kPa	801.2 ± 2.1	651.8 ± 2.2	488.1 ± 2.1	379.8 ± 1.8	316.8 ± 1.6
16900 kPa	805.8 ± 2	661.7 ± 2.1	501 ± 2.1	390.2 ± 1.8	325.1 ± 1.6
17240 kPa	809.8 ± 2	669.7 ± 2.1	513 ± 2.4	400.4 ± 2.1	333.1 ± 1.6

CCCCCCC [heptane]
mass density [kg/m3], Liquid
Details	313.15 K	333.15 K	353.15 K	373.15 K	393.15 K
340 kPa	667.1 ± 1.4	649.7 ± 1.4	631.8 ± 1.4	613.1 ± 1.4	593.4 ± 1.4
690 kPa	667.5 ± 1.4	650.2 ± 1.4	632.3 ± 1.4	613.7 ± 1.4	594.1 ± 1.4
1030 kPa	667.8 ± 1.4	650.6 ± 1.4	632.8 ± 1.4	614.3 ± 1.4	594.9 ± 1.4
1380 kPa	668.2 ± 1.4	651 ± 1.4	633.3 ± 1.4	614.9 ± 1.4	595.6 ± 1.4
1720 kPa	668.64 ± 1.4	651.4 ± 1.4	633.9 ± 1.4	615.5 ± 1.4	596.3 ± 1.4
2070 kPa	669 ± 1.4	651.9 ± 1.4	634.4 ± 1.4	616.1 ± 1.4	597 ± 1.4
2410 kPa	669.3 ± 1.4	652.3 ± 1.4	634.9 ± 1.4	616.7 ± 1.4	597.8 ± 1.4
2760 kPa	669.8 ± 1.4	652.7 ± 1.4	635.3 ± 1.4	617.3 ± 1.4	598.5 ± 1.4
3100 kPa	670.1 ± 1.4	653.2 ± 1.4	635.8 ± 1.4	618.2 ± 1.4	599.2 ± 1.4
3450 kPa	670.4 ± 1.4	653.6 ± 1.4	636.3 ± 1.4	618.5 ± 1.4	599.9 ± 1.4
3800 kPa	670.8 ± 1.4	654 ± 1.4	636.8 ± 1.4	619 ± 1.4	600.5 ± 1.4
4140 kPa	671.2 ± 1.4	654.4 ± 1.4	637.3 ± 1.4	619.6 ± 1.4	601.2 ± 1.4
4480 kPa	671.6 ± 1.4	654.8 ± 1.4	637.7 ± 1.4	620.2 ± 1.4	601.9 ± 1.4
4830 kPa	671.9 ± 1.4	655.2 ± 1.4	638.2 ± 1.4	620.7 ± 1.4	602.5 ± 1.4
5170 kPa	672.2 ± 1.4	655.6 ± 1.4	638.7 ± 1.4	621.2 ± 1.4	603.2 ± 1.4
5510 kPa	672.6 ± 1.4	656 ± 1.4	639.2 ± 1.4	621.8 ± 1.4	603.8 ± 1.4
5860 kPa	672.9 ± 1.4	656.4 ± 1.4	639.6 ± 1.4	622.3 ± 1.4	604.4 ± 1.4
6200 kPa	673.3 ± 1.4	656.8 ± 1.4	640.1 ± 1.4	622.9 ± 1.4	605.1 ± 1.4
6550 kPa	673.6 ± 1.4	657.2 ± 1.4	640.6 ± 1.4	623.4 ± 1.4	605.7 ± 1.4
6890 kPa	674 ± 2	657.6 ± 1.4	641 ± 1.4	623.9 ± 1.4	606.3 ± 1.5
7240 kPa	674.3 ± 1.4	658 ± 1.4	641.5 ± 1.4	624.4 ± 1.4	606.9 ± 1.5
7580 kPa	–	658.4 ± 1.4	641.9 ± 1.4	625 ± 1.5	607.5 ± 1.5
7930 kPa	–	658.8 ± 1.4	642.3 ± 1.4	625.5 ± 1.5	608.1 ± 1.5
8270 kPa	–	659.2 ± 1.4	642.8 ± 1.4	626 ± 1.5	608.7 ± 1.5
8620 kPa	–	–	643.2 ± 1.5	626.5 ± 1.5	609.3 ± 1.5
8960 kPa	–	–	643.9 ± 1.5	627 ± 1.5	609.9 ± 1.5
9310 kPa	–	–	644.1 ± 1.5	627.5 ± 1.5	610.8 ± 1.5
9650 kPa	–	–	644.5 ± 1.5	628 ± 1.5	611.1 ± 1.5
